From patent US9216173B2, “2-Pyridyl carboxamide-containing spleen tyrosine kinase (SYK) inhibitors” (Merck Sharp & Dohme Corp., priority 2011, dated 2015)
Like-named read-outs stand apart in the source and are kept apart here.

Tests used:
[1] = target: T1, recombinant human GST-SYK (Homo sapiens, UniProt P43405); experiment: Homogeneous Time-Resolved Fluorescence (HTRF) assay for the recombinant human Syk enzyme; assay type: biochemical; conditions: GST-hSYK 5 pM, ATP 25 μM, 10-dose titration 10 μM to 0.508 nM
T1 construct: purchased Carna Biosciences 08-176
How it was run: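 GST-hSYK fusion phosphorylates a peptide for 45 min at room temperature. Quenched with EDTA buffer containing 2 nM Eu-anti-phosphotyrosine antibody and 70 nM SA-APC. HTRF signal read after 30 min.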

[2] = phase II clinical trial, allergic rhinitis; cited from earlier work
PGD2 = conditions: dosed intranasally, phase I/II, allergic rhinitis; cited from earlier work
[3] = read-out: rhSYK Activity (IC50 rating)

| IC50 [1, 3] | SMILES | further results |
| --- | --- | --- |
| < 10 nM | Cc1cc(OC(C)C)cc(Nc2cc(N[C@@H]3CCCC[C@@H]3N)cnc2C(N)=O)n1 [Example 5.2, 5-{[(1R,2S)-2-aminocyclohexyl]amino}-3-{[6-methyl-4-(1-methylethoxy)pyridin-2-yl]amino}pyridine-2-carboxamide] |  |
| < 10 nM | Cc1cc(OCc2ccccc2)cc(Nc2cc(N[C@@H]3CCCC[C@@H]3N)cnc2C(N)=O)n1 [Example 5.3, 5-{[(1R,2S)-2-aminocyclohexyl]amino}-3-{[4-(benzyloxy)-6-methylpyridin-2-yl]amino}pyridine-2-carboxamide] |  |
| 10 to 100 nM | CC(=O)NCC(N)CNc1cnc(C(N)=O)c(Nc2cc(C)cc(C)n2)c1 (centres unmarked) [Example 6.1, 5-{[3-(acetylamino)-2-aminopropyl]amino}-3-[(4,6-dimethylpyridin-2-yl)amino]pyridine-2-carboxamide] |  |
| < 10 nM | Cc1nc(Nc2cc(N[C@@H]3CCCC[C@@H]3N)cnc2C(N)=O)ccc1C(N)=O [Example 7, 5-{[(1R,2S)-2-aminocyclohexyl]amino}-3-[(5-carbamoyl-6-methylpyridin-2-yl)amino]pyridine-2-carboxamide] |  |
| 100 to 1000 nM | NC(=O)c1ncc(N[C@@H]2CCCC[C@@H]2N)cc1Nc1cccc(CN2CCNCC2)n1 [Example 8, 5-{[(1R,2S)-2-aminocyclohexyl]amino}-3-{[6-(piperazin-1-ylmethyl)pyridin-2-yl]amino}pyridine-2-carboxamide] |  |
| 1000 to 10000 nM | Cc1cc(C)nc(Nc2cc(N)cnc2C(N)=O)c1 [Example 9, 5-amino-3-[(4,6-dimethylpyridin-2-yl)amino]pyridine-2-carboxamide] | IC50 ([1]; read-out: IC50): 2900 nM |
| 100 to 1000 nM | Cc1cc(C)nc(Nc2cc(NC(=O)CN)cnc2C(N)=O)c1 [Example 10, 3-[(4,6-dimethylpyridin-2-yl)amino]-5-(glycylamino)pyridine-2-carboxamide] |  |
| 10 to 100 nM | Cc1cc(O)cc(Nc2cc(N[C@@H]3CCCC[C@@H]3N)cnc2C(N)=O)n1 [Example 11, 5-{[(1R,2S)-2-aminocyclohexyl]amino}-3-[(4-hydroxy-6-methylpyridin-2-yl)amino]pyridine-2-carboxamide] |  |
| 10 to 100 nM | Cc1cc(C(=O)O)cc(Nc2cc(N[C@@H]3CCCC[C@@H]3N)cnc2C(N)=O)n1 [Example 12, 2-[(5-{[(1R,2S)-2-aminocyclohexyl]amino}-2-carbamoylpyridin-3-yl)amino]-6-methylpyridine-4-carboxylic acid] |  |
| < 10 nM | CCc1cccc(Nc2cc(N[C@@H]3CCCC[C@@H]3N)cnc2C(N)=O)n1 [Example 13, 5-{[(1R,2S)-2-aminocyclohexyl]amino}-3-[(6-ethylpyridin-2-yl)amino]pyridine-2-carboxamide] |  |
| 10 to 100 nM | Cc1cc(C)nc(Nc2cc(NCCCN)cnc2C(N)=O)c1 [Example 14, 5-[(3-aminopropyl)amino]-3-[(4,6-dimethylpyridin-2-yl)amino]pyridine-2-carboxamide] |  |
| 100 to 1000 nM | CCNC(=O)Nc1cnc(C(N)=O)c(Nc2cc(C)cc(C)n2)c1 [Example 15, 3-[(4,6-dimethylpyridin-2-yl)amino]-5-[(ethylcarbamoyl)amino]pyridine-2-carboxamide] |  |
| < 10 nM | Cc1nc(Nc2cc(N[C@@H]3CCCC[C@@H]3N)cnc2C(N)=O)ccc1C(=O)O [Example 16, 6-[(5-{[(1R,2S)-2-aminocyclohexyl]amino}-2-carbamoylpyridin-3-yl)amino]-2-methylpyridine-3-carboxylic acid] |  |
| 10 to 100 nM | Cc1nc(Nc2cc(N[C@@H]3CCCC[C@@H]3N)cnc2C(N)=O)ccc1C(=O)N(C)C [Example 17, 5-{[(1R,2S)-2-aminocyclohexyl]amino}-3-{[5-(dimethylcarbamoyl)-6-methylpyridin-2-yl]amino}pyridine-2-carboxamide] |  |
| < 10 nM | CC1=CCCc2nc(Nc3cc(N[C@@H]4CCCC[C@@H]4N)cnc3C(N)=O)ccc21 [Example 18, 5-{[(1R,2S)-2-aminocyclohexyl]amino}-3-[(5-methyl-7,8-dihydroquinolin-2-yl)amino]pyridine-2-carboxamide] |  |
| 100 to 1000 nM | Cc1cc(C)nc(Nc2cc(NS(=O)(=O)CCN)cnc2C(N)=O)c1 [Example 19, 5-{[(2-aminoethyl)sulfonyl]amino}-3-[(4,6-dimethylpyridin-2-yl)amino]pyridine-2-carboxamide] |  |
|  | Oc1cccc(Nc2ncc(F)c(Nc3cccc(O)c3)n2)c1 [Example R112] | efficacy versus placebo [2]: lack of efficacy; PGD2 level (PGD2): statistically significant decrease; clinical safety (PGD2): safe across a range of indicators |
